Common to all, as to format: cell-based
The target in assay [1] is T1, Human GPR120 short form (Homo sapiens, UniProt Q5NUL3).
T1 construct: expressed in transfected cells
T1 sequence (Q5NUL3 1-361): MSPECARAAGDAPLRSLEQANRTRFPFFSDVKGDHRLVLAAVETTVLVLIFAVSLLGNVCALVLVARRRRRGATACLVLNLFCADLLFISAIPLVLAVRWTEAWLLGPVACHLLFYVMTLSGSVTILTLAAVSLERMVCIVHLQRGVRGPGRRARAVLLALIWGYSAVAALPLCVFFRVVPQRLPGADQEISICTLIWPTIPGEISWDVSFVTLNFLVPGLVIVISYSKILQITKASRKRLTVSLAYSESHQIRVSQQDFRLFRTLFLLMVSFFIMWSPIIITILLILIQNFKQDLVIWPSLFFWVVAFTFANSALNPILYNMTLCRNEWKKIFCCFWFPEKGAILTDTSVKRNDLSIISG
The assay can be described thus: Human GPR120 calcium flux assay, Procedure Calcium A. The settings on record: HEK-293 cells expressing human GPR120 short form, 2500 cells/well, FLIPR. The text has this: (§1) This in vitro assay serves to assess test compound agonist activity against the short splice variant (SVS with Accession number NM_001195755.1 confirmed by sequencing data) of the GPR120 receptor. The Human Short splice variant #2 (NM_001195755.1) is missing an in-frame coding exon compared to variant 1 (the Human Long splice variant NM_181745.3), resulting in a shorter isoform (GPR120-S) lacking a 16 aa protein segment compared to isoform GPR120-L. The assay platform utilizes HEK-293 cells stably transfected to express the Human GPR120 short form. These cells are first loaded with the Ca^+2 sensitive dye, Fluo-4 NW. Upon stimulation, intracellular released Ca^+2 can bind to the dye and alter its fluorescence intensity. This increase in fluorescence signal, and thus the flux in intracellular [Ca^2+], is detected and quantitated by fluorescence imaging using a FLIPR reader. The effect of the agonist is measured as a function of concentration and used to calculate an EC50 based upon a response curve.
In this procedure 2500 cells/well were employed.
(§2) A Human GPR120 clone (Genbank accession number NM_001195755.1) was placed into the pcDNA3.1 mammalian expression vector carrying the neomycin resistance gene. A stable mammalian cell was generated by placing the above clone into a HEK293 background. Clonal cells responding to long chain fatty acids had expression levels of GPR120 confirmed by RT-qPCR. Human HEK-GPR120 cells were cultured in Dulbecco's Modified Eagle's Medium (DMEM)/F12 medium supplemented with 10% fetal bovine serum (FBS), 1% L-Glutamine and 1% penicillin/streptomycin and 0.5 mg/ml G-418. Cells were split 2 times a week to keep the cells in the log-phase growth.
(§3) In preparation for the assay, HEK cells stably transfected with Human GPR120 (2.5K cells per well in 25 uL growth medium) were seeded into 384-well plates and then incubated overnight (37° C., 5% CO2). The next day, the media was changed to 20 μl assay buffer and the cell starved for 1 h at 37° C. The dye loading solution (2× dye) was prepared using 10 ml assay buffer, 100 μl of 250 mM probenecid, 1 bottle of Component A, and 20 μl of dye in DMSO. Twenty μl of the 2× dye loading buffer was then added to each well. The plates were incubated at 37° C. for 30 min, then at room temperature for an additional 15 minutes, before performing the assay on FLIPR.
(§4) Test compounds were prepared in assay buffer (2 μl of test compound+198 μl assay buffer, final DMSO in assay plate is 0.2%) at the desired concentration, more particularly at 100 μM, 50 μM, 25 μM, 12.5 μM, 6.25 μM, 3.125 μM, 1.562 μM, 0.781 μM, 0.391 μM, 0.195 μM, 0.098 μM, 0.049 μM, 0.024 μM and 0.012 μM.
(§5) The assay was performed on a FLIPR plate reader using the following parameters. Baseline was read for 10 seconds at 1 sec intervals. The program was set to transfer 10 μL of ligand from compound plate to cell plate after baseline reading. Aspiration was executed at: 10 μl/sec speed, 4.6 μl height; Dispensing was executed at: 30 μl/sec speed, 45 μl height. After compound addition, each well was read for 300 sec, with measurements collected at 1 sec intervals.
(§6) The kinetic data from the FLIPR was based upon a 5 minute window for data collection. The fluorescence of each sample well was used for individual calculations of a normalized RFU value, which was defined as maximum response minus the minimum response. The normalized fluorescence reading (RFU) was calculated as follows: RFU=Fmax−Fmin
(§7) The data were fitted to a sigmoidal dose-response curve with a variable Hill slope (<2) using nonlinear regression with GraphPad Prism 5.0 to calculate the EC50 values. The Fitting Equation was: Y=Bottom+(Top−Bottom)/(1+10^((LogEC50−X)*HillSlope)), where X is the log of the concentration and Y is the response.
On the technique in general: Calcium assays in cells follow changes in intracellular calcium, usually with a dye or a luminescent sensor.

The target in assay [2] is T2, long form of human GPR120 (Homo sapiens, UniProt Q5NUL3).
T2 construct: host or cells: PathHunter CHO-K1 GPR120 β-Arrestin Cell Line
T2 sequence (Q5NUL3 1-377 isoform Q5NUL3-1): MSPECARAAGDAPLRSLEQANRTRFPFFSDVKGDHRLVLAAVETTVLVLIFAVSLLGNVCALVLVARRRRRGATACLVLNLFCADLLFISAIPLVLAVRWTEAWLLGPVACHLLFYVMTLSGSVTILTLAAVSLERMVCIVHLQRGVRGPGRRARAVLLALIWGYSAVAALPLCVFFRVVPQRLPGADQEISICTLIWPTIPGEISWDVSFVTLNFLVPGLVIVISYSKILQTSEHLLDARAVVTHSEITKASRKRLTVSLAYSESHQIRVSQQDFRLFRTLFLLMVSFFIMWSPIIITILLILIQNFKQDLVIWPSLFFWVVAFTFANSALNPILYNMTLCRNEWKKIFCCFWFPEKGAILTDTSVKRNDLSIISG
T2 sequence (P32121 whole entry partner): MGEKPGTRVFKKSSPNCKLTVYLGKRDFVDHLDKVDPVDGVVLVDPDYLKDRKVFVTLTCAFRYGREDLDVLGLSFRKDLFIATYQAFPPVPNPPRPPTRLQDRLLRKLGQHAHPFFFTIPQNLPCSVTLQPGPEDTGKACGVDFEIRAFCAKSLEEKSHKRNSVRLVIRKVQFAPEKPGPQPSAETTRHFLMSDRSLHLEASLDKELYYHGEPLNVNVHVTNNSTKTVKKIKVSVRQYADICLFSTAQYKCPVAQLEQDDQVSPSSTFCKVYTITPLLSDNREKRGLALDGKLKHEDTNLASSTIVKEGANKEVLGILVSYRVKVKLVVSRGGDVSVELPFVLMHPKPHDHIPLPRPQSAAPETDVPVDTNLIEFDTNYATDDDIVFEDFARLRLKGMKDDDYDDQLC
The assay can be described thus: Human GPR120 DiscoveRx PathHunter β-Arrestin assay, Procedure β-arrestin A. The following applies: PathHunter CHO-K1 GPR120 β-Arrestin cell line, 3000 cells per well. The text has this: The binding of an agonist (medium/long chain fatty acids or small molecule agonists) to the G-protein-coupled receptor GPR120 activates phospholipase C, leading to release of intracellular Ca^+2 through the generation of inositol 1,4,5-trisphosphate (InsP3 or IP3). GPR120 activation can also trigger intracellular signaling via recruitment of β-Arrestin. In the present method, agonist-induced activation of the human GPR120 receptor is monitored through the use of PathHunter CHO-K1 GPR120 β-Arrestin Cell Line engineered by DiscoveRx, as detailed below. The cell lines are designed to co-express both the ProLink/Enzyme Donor (PK)-tagged GPCR and the Enzyme […] (EA)-tagged Beta-Arrestin fusion proteins. Upon GPR120 receptor stimulation/activation, the EA-tagged β-Arrestin portion is translocated to the tagged receptor, where the two enzyme fragments are brought within close proximity. Under these conditions, these fragments can interact and form an active Beta-gal enzyme complex through Enzyme Fragment Complementation (EFC). This active Beta-gal complex can enzymatically hydrolyse the substrate to produce a detectable light signal; therefore, activation as a function of agonist concentration can be expressed as an EC50 value to determine relative compound activities. This in vitro assay therefore serves to assess compound agonist activity of the GPR120.
In Procedure β-arrestin A, the cell used were PathHunter CHO-K1 GPR120 β-Arrestin Cell Line, expressing the long form of human GPR120 (Genbank accession number NM_181745), with 3000 cells per well.
The selected CHO-K1 GPR120 β-Arrestin cells were cultured in Ham's F12 media supplemented with 10% fetal bovine serum (FBS), 1% Glutamine, 1×p/s, 800 μg/ml G418 and 300 μg/ml Hygromycin B (for selection). Cell stocks were maintained and grown in a sub-confluent state using standard cell culture procedures. The day before the experiment, the cells were harvested with non-enzymatic cell dissociation buffer and re-suspended in complete growth media at the desired concentration. A Corning 384-plate was then seeded with the proper number of cells in a volume of 25 μL, per well. The seeded plates were incubated overnight at 37° C.
On the day of the experiment, the Assay Buffer containing (a) HBSS with Ca^++ and Mg^++, (b) 20 mM HEPES, and (c) 0.1% BSA stabilizer (pH 7.4) was prepared. The growth medium was gently removed from the cell plates and 20 μL of Assay Buffer added to each well. The plate was then incubated at 37° C. for 60 mins. Test compounds were serially diluted in Assay Buffer to desired concentrations (more particularly, to one or more of the following μM concentrations: 25 μM, 12.5 μM, 6.25 μM, 3.125 μM, 1.562 μM, 0.781 μM, 0.391 μM, 0.195 μM, 0.098 μM, 0.049 μM, 0.024 μM, 0.012 μM). Five μl of compound dilution was then added to each well and the plate incubated at 37° C. for 90 mins. The detection reagents were prepared according to the manufacture's instruction. Twelve μL of the detection reagents were added to each well and the plate incubated at room temperature for 60 mins.
The plates were read on an EnVision instrument, using Protocol name: Luminescence, Plate type: 384 Costar, Measurement height: 3 mm, Measurement time: 1 s, Aperture: 384 Plate aperture. The % activity relative to the positive control was calculated using the following equation:
The % Activity values were plotted versus the concentration of test compound and fitted to a sigmoidal dose-response curve with a Hill slope=1 (fixed value) using nonlinear regression with GraphPad Prism 5.0 to calculate the EC50 values. The Fitting Equation was: Y=Bottom+(Top−Bottom)/(1+10^((LogEC50−X)*HillSlope)), where X is the log of the concentration and Y is the response.

Assay [3] addresses T1, Human GPR120 short form. The assay can be described thus: Human GPR120 calcium flux assay, Procedure Calcium B. The following applies: HEK-293 cells expressing human GPR120 short form, 4200 cells/well, FLIPR.
Description: as §1
In this procedure 4200 cells/well were employed.
as §2, §3, §4, §5, §6, §7

Regarding `COc1ccc(-n2ccc(C(F)(F)F)c2COc2ccc(CCCO)c(C)c2C)cc1` [Compound 25, 3-(4-{[1-(4-Methoxyphenyl)-3-(trifluoromethyl)-1H-pyrrol-2-yl]methoxy}-2,3-dimethylphenyl)propan-1-ol], the EC50 came to 0.608 µM on Human GPR120 short form [1], 0.203 µM in assay [2] and 0.413 µM on Human GPR120 short form [3].
The corresponding values for `Cc1ccc(-n2ccc(C(F)(F)F)c2COc2ccc(CCC(=O)O)c(C)c2C)cc1` [Compound 43, 3-(2,3-dimethyl-4-[[1-(4-methylphenyl)-3-(trifluoromethyl)-1H-pyrrol-2-yl]methoxy]phenyl)propanoic acid] are 0.558 µM, 0.359 µM and 0.063 µM.
The corresponding values for `OCCCc1cc(F)c(OCc2c(C(F)(F)F)ccn2-c2ccccc2)c(F)c1` [Compound 35, 3-(3,5-difluoro-4-[[1-phenyl-3-(trifluoromethyl)-1H-pyrrol-2-yl]methoxy]phenyl)propan-1-ol] are 0.507 µM, 0.201 µM and 0.063 µM.
The corresponding values for `OCCCc1cc(F)c(OCc2c(C(F)(F)F)ccn2-c2ccc(Br)cc2)c(F)c1` [Compound 30, 3-(4-[[1-(4-bromophenyl)-3-(trifluoromethyl)-1H-pyrrol-2-yl]methoxy]-3,5-difluorophenyl)propan-1-ol] are 0.427 µM, 0.025 µM and 0.246 µM.
For the molecule `COc1ccc(-n2ccc(C(F)(F)F)c2COc2ccc(CCC(=O)O)c(C)c2C)cc1` [Compound 24, 3-(4-{[1-(4-Methoxyphenyl)-3-(trifluoromethyl)-1H-pyrrol-2-yl]methoxy}-2,3-dimethylphenyl)propanoic acid], the half-maximal effective concentration (EC50) came to 0.931 µM at Human GPR120 short form [1], 0.308 µM in assay [2] and 0.227 µM on Human GPR120 short form [3].
On the same counts, the results for `CCc1ccc(-n2ccc(C(F)(F)F)c2COc2c(F)cc(CCC(=O)O)cc2F)cc1` [Compound 32, 3-(4-[[1-(4-ethylphenyl)-3-(trifluoromethyl)-1H-pyrrol-2-yl]methoxy]-3,5-difluorophenyl)propanoic acid] are 0.402 µM, 0.357 µM and 0.117 µM.
As for `COc1ccc(-n2ccc(C(F)(F)F)c2COc2ccc(CCCO)c(F)c2F)cc1` [Compound 27, 3-(2,3-Difluoro-4-{[1-(4-methoxyphenyl)-3-(trifluoromethyl)-1H-pyrrol-2-yl]methoxy}phenyl)propan-1-ol], the EC50 on Human GPR120 short form [1] was 0.218 µM; in assay [2] it was 0.046 µM; on Human GPR120 short form [3], 0.054 µM.
On the same counts, the results for `Cc1ccc(-n2ccc(C(F)(F)F)c2COc2ccc(CCC(=O)O)c(F)c2F)cc1` [Compound 42, 3-(2,3-difluoro-4-[[1-(4-methylphenyl)-3-(trifluoromethyl)-1H-pyrrol-2-yl]methoxy]phenyl)propanoic acid] are 0.81 µM, 0.293 µM and 0.084 µM.
The corresponding values for `Cc1ccc(-n2ccc(C(F)(F)F)c2COc2ccc(CCCO)c(F)c2F)cn1` [Compound 47, 3-(2,3-difluoro-4-[[1-(6-methylpyridin-3-yl)-3-(trifluoromethyl)-1H-pyrrol-2-yl]methoxy]phenyl)propan-1-ol trifluoroacetic acid] are 0.375 µM, 0.241 µM and 0.066 µM.
The corresponding values for `Cc1ccc(-n2ccc(C(F)(F)F)c2COc2c(F)cc(CCCO)cc2F)cn1` [Compound 48, 3-(3,5-difluoro-4-((1-(6-methylpyridin-3-yl)-3-(trifluoromethyl)-1H-pyrrol-2-yl)methoxy)phenyl)propan-1-ol trifluoroacetic acid] are 0.098 µM, 0.098 µM and 0.03 µM.
Take `Cc1c(CCC(=O)O)ccc(OCc2cccn2-c2ccc(Br)cc2)c1C` [Compound 3, 3-(4-{[1-(4-Bromophenyl)-1H-pyrrol-2-yl]methoxy}-2,3-dimethylphenyl)propanoic acid]: the EC50 was determined as 1.04 µM on Human GPR120 short form [1], 0.592 µM in assay [2] and 0.164 µM on Human GPR120 short form [3].

The term EC50 denotes the concentration needed to bring the measured effect to its halfway point.

The values above are taken from patent US8912227B1, “Bicyclic pyrrole derivatives useful as agonists of GPR120” (Janssen Pharmaceutica NV, priority 2014, dated 2014).
